Assay results reported in PubChem BioAssay (NCI).
Values joined by “and” are separate entries in the source; they are usually repeats but may differ in a detail not shown here. Equal entries are not always repeated.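 48-hour exposure; five concentrations; linearly interpolated endpoints. The concentration for 50% growth inhibition is given as GI50. Definition used: TGI = concentration required for complete inhibition of growth.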 *1 amine or outer side, *2 acyl side, *3 side chain or, on linkers, in order; H or OH if unused. Where a SMILES comes first, the peptide text is derived from it. Bridges are numbered along the chain shown (N, C = ends). Roman numbers before positions name the chains, in order. X23 = CCCCCCCCCCCCCCC(=O)NC(CCCCN[*:2])C(=O)CN1CCCC1C(=O)[*:1]

How the values were obtained:
Assay in all cases: inhibition of tumour cell growth, NCI panel, 48 h
[1] = tested on: HS 578T breast
[2] = tested on: SK-MEL-28 melanoma
[3] = tested on: HL-60(TB) leukemia
[4] = tested on: DU-145 prostate
[5] = tested on: A498 renal
[6] = tested on: MDA-MB-435
[7] = tested on: BT-549 breast
[8] = tested on: NCI/ADR-RES ovarian
[9] = tested on: PC-3 prostate
[10] = tested on: 786-0 renal
[11] = tested on: ACHN renal

In the case of `CCCCCCCCCCCCCCC(=O)NC(CCCCNC(=O)C1CCCN1C(=O)C(CCCCN)NC(=O)C(CCCCN)NC(=O)C(CCCCN)NC(=O)C(CCCNC(=N)N)NC(=O)C(CCCCN)NC(=O)C(N)C(C)C)C(=O)CN1CCCC1C(=O)NCC(=O)NC(Cc1ccccc1)C(=O)N1CCCC1C(=O)NC(CO)C(=O)NC(Cc1ccc(O)cc1)C(=O)NC(CCCCN)C(=O)NC(CC(C)C)C(=O)NC(CCCNC(=N)N)C(=O)N1CCCC1C(=O)NCC(N)=O` (stereo unspecified) (I: GFPSYKLRPG-NH2 / II: H-VKRKKKP; linker I:N-II:C via X23; configuration not given here), the GI50 [1] is reported as 41.1 µM, the TGI [1] is reported as greater than 100 µM and the GI50 [2] is reported as 11.3 µM. It also gave a TGI [2] of 98.6 µM, a GI50 [3] of 22.5 µM and a TGI [3] of 94.8 µM. The GI50 [4] was 24.6 µM, the TGI [4] was 64.2 µM and the GI50 [5] was 40.5 µM. For the same compound, the TGI [5] was greater than 100 µM, the GI50 [6] was 3.15 µM and the TGI [6] was 41.6 µM. It also gave a GI50 [7] of 23.4 µM, a TGI [7] of 54.7 µM and a GI50 [8] of 19.6 µM. The TGI [8] was 52.9 µM.

Compound `O=C1/C(=C/c2ccc3c(c2)OCO3)Sc2scc(-c3ccc(O)c(O)c3)[n+]21` has a TGI [9] of 16.2 µM, a TGI [1] of 72.6 µM and a TGI [10] of 5.48 µM. It also gave a TGI [2] greater than 100 µM, a TGI [4] of 13.1 µM and a TGI [11] of 3.94 µM. For the same compound, the TGI [6] was 13.5 µM, the TGI [7] was 6.13 µM and the TGI [8] was 4.48 µM.

For `O=CNNC(=O)CSc1nc2ccc(I)cc2c(=O)n1Cc1ccccc1`, the TGI [9] was greater than 100 µM, the TGI [1] was 87.8 µM and the TGI [10] was greater than 100 µM. It also gave a TGI [2] greater than 100 µM, a TGI [3] of 89.7 µM and a TGI [4] greater than 100 µM. It also gave a TGI [5] greater than 100 µM, a TGI [11] greater than 100 µM and a TGI [6] greater than 100 µM. For the same compound, the TGI [7] was 99 µM and the TGI [8] was greater than 100 µM.

In the case of `CC(=O)C1=C(C)N(c2ccc(C)cc2)C2(O)C=CC(=O)C3=C(O)c4ccccc4C(=O)C312` (stereo unspecified), the TGI [9] is reported as 41.5 µM, the TGI [1] is reported as greater than 100 µM and the TGI [10] is reported as greater than 100 µM. For the same compound, the TGI [2] was 34.5 µM, the TGI [3] was greater than 100 µM and the TGI [4] was greater than 100 µM. The TGI [5] was 30.8 µM, the TGI [11] was 36.8 µM and the TGI [7] was 38.9 µM. It also gave a TGI [8] greater than 100 µM.

Compound `COc1cccc2c1C(=O)c1c(O)c3c(c(O)c1C2=O)C[C@@](O)(C(C)=O)C[C@@H]3OC1CC(N(C)C)C(O)C(C)O1` (stereo partly specified) has a TGI [9] of 0.00144 µM, a TGI [1] of 0.0011 µM and a TGI [10] of 1.36 µM. For the same compound, the GI50 [2] was 0.0475 µM, the GI50 [3] was 0.0402 µM and the TGI [4] was 0.00739 µM. For the same compound, the GI50 [5] was 0.139 µM and 0.0466 µM, the GI50 [11] was 0.00902 µM and the TGI [6] was 0.00234 µM. For the same compound, the TGI [7] was 0.00562 µM and the TGI [8] was 1.87 µM.

`COC1=CCC2=C(CCN(C(=O)C3CC3)C2Cc2ccc(OC)c(O)c2)C1` (stereo unspecified) was tested, and the TGI [9] was greater than 100 µM, the TGI [1] was greater than 100 µM and the TGI [10] was greater than 100 µM. It also gave a TGI [2] greater than 100 µM, a TGI [3] of 91.7 µM and a TGI [4] greater than 100 µM. It also gave a TGI [5] greater than 100 µM, a TGI [11] greater than 100 µM and a TGI [6] of 68.8 µM. It also gave a TGI [8] of 55.4 µM.

`Nc1nccc2c1ncn2C1C=C(CO)C(O)C1O` (stereo unspecified) showed a GI50 [2] of 0.852 µM, a TGI [2] greater than 1000 µM and a GI50 [3] of 0.337 µM. It also gave a TGI [3] greater than 1000 µM.

`O=C1CSc2sc(=S)sc2S1` gave a TGI [2] greater than 100 µM, a TGI [3] greater than 100 µM and a TGI [5] greater than 78.6 µM. For the same compound, the TGI [8] was greater than 100 µM.

`O=C1NC2(NC(=O)C1=O)Nc1ccccc1S2` was tested, and the TGI [10] was 48.6 µM, the TGI [2] was greater than 100 µM and the TGI [3] was greater than 64.8 µM. It also gave a TGI [5] greater than 100 µM and a TGI [11] greater than 76.1 µM.

In the case of `Cc1cc(O)c2cc3c(O)c(O)ccc3cc2c1`, the TGI [9] is reported as 19.3 µM, the TGI [1] is reported as 6.22 µM and the TGI [10] is reported as greater than 47.8 µM. It also gave a TGI [2] greater than 58.8 µM, a TGI [3] of 4.16 µM and a TGI [4] greater than 50.8 µM. For the same compound, the TGI [5] was 16.1 µM, the TGI [11] was 5.71 µM and the TGI [6] was 22.8 µM. For the same compound, the TGI [7] was greater than 44.3 µM and the TGI [8] was 5.89 µM.

`O=[P+](O)c1cccs1` gave a TGI [2] greater than 100 µM, a TGI [3] greater than 100 µM and a TGI [5] greater than 100 µM. It also gave a TGI [11] greater than 100 µM.

With `O=NN(CCCl)C(=O)Nc1ccc(Cl)c(Cl)c1` the TGI [2] was greater than 100 µM, the TGI [3] was greater than 100 µM and the TGI [5] was greater than 100 µM. For the same compound, the TGI [8] was greater than 100 µM.

Compound `CC1C(O)[C@@]2(OC[C@@]34C(=O)CC5(O)[C@H](CCC6Cc7nc8c(nc7C[C@]65C)CC5CC[C@@H]6C7=C[C@H]9O[C@@]%10(O[C@@](C)(CO)C[C@@H]%10O)C(C)[C@@]9(O)[C@]7(C)[C@@H](O)CC6[C@]5(C)C8)C3=CC[C@H]4C2C)OC1(C)C` (stereo partly specified) has a TGI [3] of 0.536 µM, a TGI [5] of 0.00105 µM and a TGI [8] greater than 3.55 µM.

For `Cc1ccc([S+](c2ccccc2)c2cc(C)ccc2C)cc1` (stereo unspecified), the TGI [10] was greater than 100 µM, the TGI [3] was 66.5 µM and the TGI [5] was 32.1 µM. It also gave a TGI [11] greater than 100 µM.

`CC(=O)OCC1OC(N2C(=O)CC(N)=Nc3ccccc32)C(OC(C)=O)C(OC(C)=O)C1OC(C)=O` (stereo unspecified) showed a TGI [9] greater than 100 µM, a TGI [1] greater than 100 µM and a TGI [10] greater than 100 µM. The TGI [2] was greater than 100 µM, the TGI [3] was greater than 100 µM and the TGI [4] was greater than 100 µM. It also gave a TGI [5] greater than 100 µM, a TGI [11] greater than 100 µM and a TGI [6] greater than 100 µM. It also gave a TGI [7] greater than 100 µM and a TGI [8] greater than 100 µM.

Compound `CN(CCNC(=O)c1cn(C)c2c1ccc1cc(Cl)ccc12)CCNC(=O)c1cn(C)c2c1ccc1cc(Cl)ccc12` has a TGI [9] of 11.5 µM, a TGI [1] of 4.25 µM and a TGI [2] of 10.9 µM. For the same compound, the TGI [3] was 10.4 µM, the TGI [4] was 3.25 µM and the TGI [5] was 14.5 µM. It also gave a TGI [11] of 9.73 µM, a TGI [6] of 3.47 µM and a TGI [7] of 21.9 µM. For the same compound, the TGI [8] was 3.6 µM.

With `CCc1cccc(C(C)C)c1NC1=C([n+]2ccc(C)cc2)C(=O)c2ccccc2C1=O` the TGI [9] was 8.91 µM, the TGI [1] was greater than 100 µM and the TGI [10] was 12.1 µM. It also gave a TGI [2] of 20.8 µM, a TGI [3] of 9.29 µM and a TGI [4] of 3.92 µM. It also gave a TGI [5] of 8.79 µM, a TGI [11] of 1.68 µM and a TGI [6] of 3.12 µM. For the same compound, the TGI [8] was 37.8 µM.

Work on `Oc1ccc(NCc2cc(O)ccc2O)cc1` yielded a TGI [9] of 28.4 µM, a TGI [1] greater than 100 µM and a TGI [10] of 31.9 µM. For the same compound, the TGI [2] was 45.7 µM, the TGI [3] was 11.7 µM and the TGI [4] was 32.9 µM. For the same compound, the TGI [5] was 60.1 µM, the TGI [11] was 29.6 µM and the TGI [6] was 32 µM. For the same compound, the TGI [7] was 25.8 µM and the TGI [8] was 51.3 µM.

For `COC[C@@H]1Cc2cc(OC)c3c(c2[C@H](c2ccc(OC)c(OC)c2)[C@H]1COC)OCO3`, the TGI [2] was greater than 100 µM, the TGI [3] was greater than 100 µM and the TGI [5] was greater than 100 µM. The TGI [11] was greater than 100 µM.

`C[As](C)SCC(NC(=O)CCC(N)C(=O)O)C(=O)NCC(=O)O.Cl.c1ccncc1` (stereo unspecified) was tested, and the TGI [9] was 4 µM, the TGI [1] was 4.6 µM and the TGI [10] was 1.3 µM. It also gave a TGI [2] of 2.01 µM, a TGI [3] of 0.878 µM and a TGI [4] of 0.556 µM. The TGI [5] was 3.44 µM, the TGI [11] was 1.1 µM and the TGI [6] was 1.07 µM. The TGI [7] was 1.57 µM and the TGI [8] was 9.71 µM.

Compound `O=CN(O)CC(=O)O.[Ni]` has a TGI [9] greater than 100 µM, a TGI [1] greater than 100 µM and a TGI [10] greater than 100 µM. It also gave a TGI [2] greater than 100 µM, a TGI [3] greater than 100 µM and a TGI [4] greater than 100 µM. For the same compound, the TGI [5] was greater than 100 µM, the TGI [11] was greater than 100 µM and the TGI [6] was greater than 100 µM. For the same compound, the TGI [7] was greater than 100 µM and the TGI [8] was greater than 100 µM.

`CC(C)(C)OC(=O)N1CCCC1C(=O)NCCNc1ccc(NCCNC(=O)C2CCCN2C(=O)OC(C)(C)C)c2c1C(=O)c1ccccc1C2=O` (stereo unspecified) gave a TGI [9] of 26.4 µM, a TGI [1] of 69.5 µM and a TGI [10] of 28 µM. It also gave a TGI [2] of 35.6 µM, a TGI [3] greater than 100 µM and a TGI [11] of 31.6 µM. For the same compound, the TGI [6] was 39.8 µM, the TGI [7] was 25.7 µM and the TGI [8] was 29.6 µM.

With `Cc1ccc(NC(=O)CC(=O)n2nc(-c3ccccc3)c(N=Nc3ccccc3C(=O)O)c2-c2ccccc2)cc1` the TGI [2] was greater than 100 µM and the TGI [11] was greater than 100 µM.

For `NS(=O)(=O)c1ccc(N=Nc2ccc(O)c(O)c2)cc1`, the TGI [9] was greater than 100 µM, the TGI [1] was 67.3 µM and the TGI [10] was greater than 100 µM. It also gave a TGI [2] of 37.2 µM, a TGI [3] of 86.9 µM and a TGI [4] greater than 100 µM. The TGI [5] was greater than 100 µM, the TGI [11] was 17 µM and the TGI [6] was 32.2 µM. For the same compound, the TGI [7] was 14.4 µM and the TGI [8] was 73.2 µM.

`OCCSCc1cc(Cl)cc(Cl)c1O` was tested, and the TGI [9] was greater than 100 µM, the TGI [1] was greater than 100 µM and the TGI [10] was greater than 100 µM. It also gave a TGI [2] greater than 100 µM, a TGI [4] greater than 100 µM and a TGI [5] greater than 100 µM. The TGI [11] was greater than 100 µM, the TGI [6] was greater than 100 µM and the TGI [7] was greater than 100 µM. For the same compound, the TGI [8] was greater than 100 µM.
